Test results taken from EP1780283A1, “Trophic conversion of obligate photographic algae through metabolic engineering” (MARTEK BIOSCIENCES CORPORATION, priority 2000, dated 2001).
Like-named read-outs stand apart in the source and are kept apart here.

Experiments:
[1] = tested on: human Glut1 glucose transporter (Glut1, from human erythrocytes), expressed in P. tricornutum transformants Glut-13 and Glut-17; test: Glucose uptake kinetics (D-14C-glucose) of glut1 containing P. tricornutum transformants; assay type: cell-based, Phaeodactylum tricornutum; details: cell line Glut-13; 5x10^-4 of Cytochalasin B (unit not given)
Cylindrotheca fusiformis = test: Antibiotic sensitivity of diatoms on solid media; assay type: cell-based; details: for lowest concentration of antibiotic per ml required for cell death or the lowest concentration tested: reduced salinity
Method: (§1) The diatoms Phaeodactylum tricornutum, Cylindrotheca fusiformis, Cyclotella cryptica and Nitzschia alba were extensively tested for sensitivity to a series of antibiotics for which resistance genes are available, and the lowest concentrations which completely abrogate growth were determined for each antibiotic (Table C). […] These include antibiotics such as G418, Hygromycin, Kanamycin and Spectinomycin, which are routinely utilized for selection of other eukaryotic organisms.
(§2) The effective concentration range of the antibiotic in most cases was lowered by a factor of 10.
(§3) Cells of each diatom species were plated on solid media at salinity equivalents of 25-100% I.O. media, with a gradient of antibiotic concentrations. After 2 weeks of illumination the growth of the cells was assessed and the concentration of antibiotic required for cell death was determined. (Table D). Table C. Effect of antibiotics on the growth of selected diatoms. Values represent the lowest concentration of the antibiotic per ml required for cell death or the highest concentration tested.
(§4) Table D. Effect of antibiotics on the growth of selected diatoms in media with reduced salinity. The relative percentage of salinity verses normal seawater of the medium is given in parentheses. Antibiotic levels are given as the lowest concentration of antibiotic per ml required for cell death or the lowest concentration tested.

Cyclotella cryptica = test: Antibiotic sensitivity of diatoms on solid media; assay type: cell-based; details: for lowest concentration of antibiotic per ml required for cell death or the lowest concentration tested: reduced salinity, 10% of normal seawater
Method: as §1, §2, §3, §4

[2] = tested on: Phaeodactylum tricornutum; test: Antibiotic sensitivity of diatoms on solid media; assay type: cell-based; details: for lowest concentration of antibiotic per ml required for cell death or the lowest concentration tested: reduced salinity
Method: as §1, §2, §3, §4

Nitzschia alba = test: Antibiotic sensitivity of diatoms on solid media; assay type: cell-based
Method: as §1, §3

[3] = C. fusiformis, solid media, 100% I.O. media, 2 weeks of illumination
[4] = C. cryptica, solid media, 100% I.O. media, 2 weeks of illumination
[5] = P. tricornutum, solid media, 100% I.O. media, 2 weeks of illumination
[6] = N. alba, solid media, 100% I.O. media, 2 weeks of illumination
[7] = C. fusiformis, 25% of normal seawater
[8] = C. fusiformis, 50% of normal seawater
[9] = P. tricornutum, 50% of normal seawater
[10] = P. tricornutum, 25% of normal seawater

Row | Molecule | glucose uptake in the presence of Cytochalasin B [1] | lowest concentration of the antibiotic per ml required for cell death or the highest concentration tested (Cylindrotheca fusiformis; [3]) [mg mg per ml] | lowest concentration of the antibiotic per ml required for cell death or the highest concentration tested (Cyclotella cryptica; [4]) [mg mg per ml] | lowest concentration of the antibiotic per ml required for cell death or the highest concentration tested [2, 5] [mg mg per ml] | lowest concentration of the antibiotic per ml required for cell death or the highest concentration tested (Nitzschia alba; [6]) [mg mg per ml] | lowest concentration of the antibiotic per ml required for cell death or the highest concentration tested (Cylindrotheca fusiformis) [mg] | lowest concentration of the antibiotic per ml required for cell death or the highest concentration tested (Cyclotella cryptica) [mg] | lowest concentration of the antibiotic per ml required for cell death or the highest concentration tested [2] [mg] | lowest concentration of the antibiotic per ml required for cell death or the highest concentration tested (Nitzschia alba) [mg] | lowest concentration of antibiotic per ml required for cell death or the lowest concentration tested (Cylindrotheca fusiformis; [7]) | lowest concentration of antibiotic per ml required for cell death or the lowest concentration tested (Cylindrotheca fusiformis; [8]) | lowest concentration of antibiotic per ml required for cell death or the lowest concentration tested (Cyclotella cryptica; C. cryptica) | lowest concentration of antibiotic per ml required for cell death or the lowest concentration tested [2, 9] | lowest concentration of antibiotic per ml required for cell death or the lowest concentration tested [2, 10]
1 | C=C1C(C)C2C(Cc3ccccc3)NC(=O)C23OC(=O)C=CC(O)CCCC(C)CC=CC3C1O (centres unmarked) [Cytochalasin B] | reduced to an undetectable level | – | – | – | – | – | – | – | – | – | – | – | – | –
2 | CN[C@@H]1[C@@H](O)[C@@H](O[C@@H]2[C@@H](O)[C@H](O[C@H]3O[C@H]([C@@H](C)O)[C@@H](O)[C@H](O)[C@H]3N)[C@@H](N)C[C@H]2N)OC[C@]1(C)O [G418] | – | > 1 | 250 | > 1 | > 500 | – | – | – | – | – | – | – | – | –
3 | CN[C@@H]1C[C@H](N)[C@@H](O)[C@H](O[C@H]2O[C@H](CO)[C@H](O)[C@@H]3O[C@@]4(O[C@@H]23)O[C@H]([C@H](N)CO)[C@H](O)[C@H](O)[C@H]4O)[C@H]1O [Hygromycin] | – | – | – | – | – | 500 | > 500 | > 1 | > 500 | – | – | – | – | –
4 | Cc1c(N)nc([C@H](CC(N)=O)NC[C@H](N)C(N)=O)nc1C(=O)N[C@H](C(=O)N[C@H](C)[C@@H](O)[C@H](C)C(=O)N[C@H](C(=O)NCCC1=N[C@@H](c2nc(C(=O)NCCCCN=C(N)N)cs2)CS1)[C@@H](C)O)[C@@H](O[C@@H]1O[C@@H](CO)[C@@H](O)[C@H](O)[C@@H]1O[C@H]1O[C@H](CO)[C@@H](O)[C@H](OC(N)=O)[C@@H]1O)c1cnc[nH]1 [Zeocin] | – | > 250 | 250 | 50 | > 250 | – | – | – | – | 100 mg (25%) mg per ml | 250 mg (50%) mg per ml | < 5 mg (10%) mg per ml | 25 mg (50%) mg per ml | –
5 | Bleomycin | – | > 50 | – | > 50 | – | – | – | – | – | – | – | – | – | –
6 | Neomycin | – | > 1 | > 1 | > 1 | > 1 | – | – | – | – | – | – | – | – | –
7 | Nourseothricin | – | > 250 | >250 | 250 | > 250 | – | – | – | – | < 10 mg (25%) mg per ml | 50 mg (50%) mg per ml | < 5 mg (10%) mg per ml | 25 mg (50%) mg per ml | 10 mg (25%) mg per ml
8 | Phleomycin | – | 25 | 25 | 5 | > 50 | – | – | – | – | < 5 mg (25%) mg per ml | 25 mg (50%) mg per ml | < 5 mg (10%) mg per ml | < 5 mg (50%) mg per ml | < 5 mg (25%) mg per ml
